Test results published in patent US20260374739A1, “SMALL MOLECULAR WEIGHT CHEMICAL COMPOUND TO ANTAGONIZE EPH-EPHRIN TETRAMERIZATION AND INHIBIT BIDIRECTIONAL SIGNALING” (THE BOARD OF REGENTS OF THE UNIVERSITY OF TEXAS SYSTEM, priority 2022, published 2026).
Values joined by “and” are separate entries in the source; they are usually repeats but may differ in a detail not shown here. Equal entries are not always repeated. “Also recorded” adds a separate entry of the source. Marks after values point to notes of the source that are not given here.

Legend:
[1] = molecular target: T1, EphrinB2-EphB2 (Homo sapiens, UniProt P29323); assay: Octet tetramerization inhibition, immobilized human EphrinB2 binding to 50 nM soluble human EphB2
T1 construct: soluble human EphB1-His, EphB2-His, and EphB4-His ectodomains; commercially available human EphrinB1-Fc (EB1), EphrinB2-Fc (EB2), and EphrinB3-Fc (EB3) ectodomain proteins; purchased
T1 sequence (P29323 19-543 limits assumed): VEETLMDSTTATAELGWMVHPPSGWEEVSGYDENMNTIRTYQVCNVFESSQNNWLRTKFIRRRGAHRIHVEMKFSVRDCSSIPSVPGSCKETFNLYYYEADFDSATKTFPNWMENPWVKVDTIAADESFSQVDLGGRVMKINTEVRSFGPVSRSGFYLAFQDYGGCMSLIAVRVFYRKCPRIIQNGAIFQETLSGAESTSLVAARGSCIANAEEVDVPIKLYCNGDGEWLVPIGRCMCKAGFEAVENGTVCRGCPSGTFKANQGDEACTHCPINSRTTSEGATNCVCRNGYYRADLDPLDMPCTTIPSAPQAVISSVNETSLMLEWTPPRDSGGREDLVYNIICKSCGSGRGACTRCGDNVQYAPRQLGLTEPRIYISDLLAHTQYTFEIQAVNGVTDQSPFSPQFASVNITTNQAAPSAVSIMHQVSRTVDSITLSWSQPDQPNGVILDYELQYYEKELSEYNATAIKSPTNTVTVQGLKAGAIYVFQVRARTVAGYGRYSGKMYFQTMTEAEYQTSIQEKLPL

[2] = molecular target: T2, EphrinB2-EphB4 (Homo sapiens, UniProt P54760); assay: Octet 80 sec association/500 sec dissociation, immobilized human EphrinB2-Fc binding to soluble human EphB4-His; details: for selectivity among EphrinB2-EphB1/B2/B4: 3.2 μM
T2 construct: soluble human EphB1-His, EphB2-His, and EphB4-His ectodomains; commercially available human EphrinB1-Fc (EB1), EphrinB2-Fc (EB2), and EphrinB3-Fc (EB3) ectodomain proteins; purchased
T2 sequence (P54760 16-539 limits assumed): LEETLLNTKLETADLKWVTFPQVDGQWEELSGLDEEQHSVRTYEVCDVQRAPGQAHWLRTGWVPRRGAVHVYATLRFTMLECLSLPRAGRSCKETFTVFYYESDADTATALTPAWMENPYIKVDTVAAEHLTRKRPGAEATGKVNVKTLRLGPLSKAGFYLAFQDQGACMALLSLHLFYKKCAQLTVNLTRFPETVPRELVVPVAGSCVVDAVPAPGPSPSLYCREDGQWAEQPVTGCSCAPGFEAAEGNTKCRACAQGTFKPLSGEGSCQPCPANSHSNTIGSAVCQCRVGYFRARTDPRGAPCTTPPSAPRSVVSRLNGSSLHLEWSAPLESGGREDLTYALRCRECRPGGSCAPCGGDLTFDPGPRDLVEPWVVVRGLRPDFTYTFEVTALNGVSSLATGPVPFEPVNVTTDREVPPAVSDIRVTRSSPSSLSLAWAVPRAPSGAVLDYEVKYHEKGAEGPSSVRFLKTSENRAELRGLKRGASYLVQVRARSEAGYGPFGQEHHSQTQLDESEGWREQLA
Procedure: (§1) In another experiment, whether certain A20 analogs might have specificity for different Eph receptors was tested. An Octet RED384 system was used to obtain biophysical ON-OFF binding data (association-dissociation) for the three different human EphrinB2-EphB1, EphrinB2-EphB2, and EphrinB2-EphB4 protein-protein interactions and to assess the effect of A20 chemicals on the binding kinetics.
(§2) FIGS. 72A-72C show three example Octet sensorgram response traces for the immobilized human EphrinB2 ectodomain protein binding to soluble forms of the human EphB1, EphB2, and EphB4 ectodomain proteins, in the absence or presence of an A20 chemical (buffer conditions are always PBSTD:PBS with 0.05% Tween-20, 1% DMSO, and +/− indicated chemical). After loading EphrinB2-Fc protein to Octet AHC biosensors, washing, and obtaining stable baseline measurements in the appropriate PBSTD (either with or without indicated chemical), the sensors are placed in its buffer that also contains the indicated soluble EphB protein for the association step (0-80″), and then returned to its buffer for the dissociation step (81″-580″). In each figure (FIGS. 72A-72C), a sensorgram run using 10 μM of the 2×HCl salt form of A20-I is compared to the no compound control run to exemplify the maximum level of reduced response signal typically obtained with a potent A20 chemical.
(§3) Because the response levels during the dissociation step plateau for the EphrinB2-EphB2 and EphrinB2-EphB1 interactions by the first 80″, AUCs were also calculated for run data encompassing the first 160″ of each experiment to account for both the 80″ association data (red asterisks) and the first 80″ of dissociation data (marked by green line and asterisks).
(§4) The selectivity of another A20 analog (a 3×HCL salt form of compound BQPB4) in comparison to previously tested compound, A20-1, was tested as described in Example 27 above.
(§5) Further to the experiments listed above, a series of dose-response experiments were conducted to determine the IC50 of a selected A20 chemical (A20-1) on the kinetics of human EphrinB2 ligand ectodomain protein binding to its cognate human EphB1, EphB2, and EphB4 receptor ectodomain proteins. FIG. 74A-74C are representative sensorgrams showing the effect of 0, 0.1, 0.2, 0.4, 0.8, 1.6, and 3.2 μM, concentrations of the 2×HCl salt of A20-I along with a 10 μM max standard (also A20-1) on three different Ephrin-EphB interactions (e.g., EphB1 in FIG. 74A, EphB2 in FIG. 74B and EphB4 in FIG. 74C). […] Additional IC50 values were determined at specific timepoints, at 75″ into the association step and at 55″ into the dissociation step (135″).
(§6) All absolute and relative IC50 values are provided in the Table 6 below, where absolute are based off the full binding sensorgram traces, and relative are based off of the max control traces.
(§7) In another experiment, the % inhibition for various A20 analog chemicals against the three different EphrinB2-EphB protein interactions was determined. Specifically, the percent inhibition for immobilized human EphrinB2-Fc binding to 25 nM soluble human EphB1-His (FIG. 76A, enlarged in FIG. 76D), EphB2-His (FIG. 76B, enlarged in FIG. 76E), and EphB4-His (FIG. 76C, enlarged in FIG. 76F) with 3511-I, 8009-9255, QTM-Br, A19, A19-NO2, and IM (all at 3.2 μM) was determined.

[3] = molecular target: T3, EphrinB2-EphB1 (Homo sapiens, UniProt P54762); assay: Octet 80 sec association/500 sec dissociation, immobilized human EphrinB2-Fc binding to soluble human EphB1-His; details: immobilized human EphrinB2, 25 nM soluble human EphB1
T3 construct: soluble human EphB1-His, EphB2-His, and EphB4-His ectodomains; commercially available human EphrinB1-Fc (EB1), EphrinB2-Fc (EB2), and EphrinB3-Fc (EB3) ectodomain proteins; purchased
T3 sequence (P54762 18-540 limits assumed): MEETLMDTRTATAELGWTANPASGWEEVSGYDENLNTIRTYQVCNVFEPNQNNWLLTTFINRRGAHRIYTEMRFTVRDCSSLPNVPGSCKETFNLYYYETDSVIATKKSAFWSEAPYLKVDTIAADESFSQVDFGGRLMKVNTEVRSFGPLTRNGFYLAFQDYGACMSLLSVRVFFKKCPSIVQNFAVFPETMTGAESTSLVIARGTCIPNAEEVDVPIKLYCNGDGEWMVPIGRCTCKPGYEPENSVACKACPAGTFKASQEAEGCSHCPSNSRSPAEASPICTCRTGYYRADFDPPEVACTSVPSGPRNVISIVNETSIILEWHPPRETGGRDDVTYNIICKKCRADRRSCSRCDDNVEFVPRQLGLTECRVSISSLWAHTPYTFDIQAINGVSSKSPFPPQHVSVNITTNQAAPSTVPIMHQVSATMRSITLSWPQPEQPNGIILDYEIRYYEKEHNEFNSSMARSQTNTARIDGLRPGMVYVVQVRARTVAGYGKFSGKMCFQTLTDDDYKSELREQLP
Procedure: as §1, §2, §3, §4, §5, §6, §7

[4] = molecular target: T1, EphrinB2-EphB2; assay: Octet 80 sec association/500 sec dissociation, immobilized human EphrinB2-Fc binding to soluble human EphB2-His; details: immobilized human EphrinB2, 25 nM soluble human EphB2; for EphB2 Inhibition Percent, Inhibition of Association ONLY: at 3.2 μM and 80 seconds; for EphB2 Inhibition Percent, Inhibition of Association-Dissociation: at 3.2 μM and 580 seconds
Procedure: as §1, §2, §3, §4, §5, §6, §7

[5] = Absolute AUC/IC50, Table A, EphrinB2-EphB2
[6] = Absolute Association IC50 (300 sec), Table A, EphrinB2-EphB2
[7] = Absolute Dissociation IC50 (450 sec), Table A, EphrinB2-EphB2
[8] = Relative AUC/IC50, Table A, EphrinB2-EphB2, compound 7: association only
[9] = Relative Association IC50 (300 sec), Table A, EphrinB2-EphB2
[10] = Relative Dissociation IC50 (450 sec), Table A, EphrinB2-EphB2
[11] = tetramerization inhibitor IC50 (relative), association step, surmountable tetramer

Work on `O=C(Cc1ccccc1)Nc1ccc(N2CCN(Cc3cc(Br)c(O)c4ncccc34)CC2)cc1` [Compound 52, N-(4-(4-((7-bromo-8-hydroxyquinolin-5-yl)methyl)piperazin-1-yl)phenyl)-2-phenylacetamide] yielded an IC50 [1, 5] greater than 3200 nM, an IC50 [1, 6] greater than 3200 nM and an IC50 [1, 7] greater than 3200 nM. The IC50 [1, 8] was greater than 3200 nM, the IC50 [1, 9] was 3310 nM and the IC50 [1, 10] was greater than 3200 nM. The IC50 [1, 11] was greater than 3000 nM and the “selectivity among EphrinB2-EphB1/B2/B4” value [2] was “less action toward EphB4 and EphB2 but high specificity for EphB1”.
`Oc1ccc(CN2CCN(Cc3ccc(Br)cc3)CC2)c2cccnc12` [Compound 43, 5-((4-(4-bromobenzyl)piperazin-1-ium-1-yl)methyl)-8-hydroxyquinolin-1-ium chloride] was tested, and the IC50 [1, 5] was 3090 nM and 3240 nM, the IC50 [1, 6] was 2700 nM and 2750 nM and the IC50 [1, 7] was 2820 nM and 3010 nM. The IC50 [1, 8] was 2240 nM, the IC50 [1, 9] was 1950 nM and the IC50 [1, 10] was 2340 nM and 2140 nM. For the same compound, the “EphB1 Inhibition Percent, Inhibition of Association ONLY” value ([3]; at 3.2 μM and 80 seconds) was 19.9% and 33.5%, the “EphB1 Inhibition Percent, Inhibition of Association-Dissociation” value ([3]; at 3.2 μM and 580 seconds) was 36.5% and 47.3% and the “EphB2 Inhibition Percent, Inhibition of Association ONLY” value [4] was 37.8% and 62.3%. The “EphB2 Inhibition Percent, Inhibition of Association-Dissociation” value [4] was 56.3% and 75.4%.
`Oc1ccc(CN2CCOCC2)c2cccnc12` [Compound 2, 4-((8-hydroxyquinolin-1-ium-5-yl)methyl)morpholin-4-ium chloride] gave an IC50 [1, 5] greater than 6400 nM, an IC50 [1, 6] greater than 6400 nM and an IC50 [1, 7] greater than 6400 nM. For the same compound, the IC50 [1, 8] was 2290 nM, the IC50 [1, 9] was 2090 nM and the IC50 [1, 10] was 2750 nM.
For `COc1ccccc1N1CCN(Cc2ccc(O)c3ncccc23)CC1` [Compound 69, 5-((4-(2-methoxyphenyl)piperazin-1-yl)methyl)quinolin-8-ol], the IC50 [1, 5] was greater than 3200 nM, the IC50 [1, 6] was greater than 3200 nM and the IC50 [1, 7] was greater than 3200 nM. For the same compound, the IC50 [1, 8] was 2010 nM, the IC50 [1, 9] was 2190 nM and the IC50 [1, 10] was 1700 nM. The “EphB2 Inhibition Percent, Inhibition of Association ONLY” value [4] was 3.6% and 0%, the “EphB2 Inhibition Percent, Inhibition of Association-Dissociation” value [4] was 19.2% and 15.5% and the “selectivity among EphrinB2-EphB1/B2/B4” value [2] was “less action toward EphB4 and EphB2 but high specificity for EphB1”. For the same compound, the “EphB4 Inhibition Percent, Inhibition of Association ONLY” value ([2]; at 3.2 μM and 80 seconds, immobilized human EphrinB2, 25 nM soluble human EphB4) was 0*/0*% and the “EphB4 Inhibition Percent, Inhibition of Association-Dissociation” value ([2]; at 3.2 μM and 580 seconds, immobilized human EphrinB2, 25 nM soluble human EphB4) was 2.2% and 0%.
In the case of `O=[N+]([O-])c1ccc(N2CCN(Cc3ccc(O)c4ncccc34)CC2)cc1` [Compound 37, 5-((4-(4-nitrophenyl)piperazin-1-yl)methyl)quinolin-8-ol], the “disruption of unsurmountable tetramer” value ([1]; 0.8-3.2 μM, listed as QPB-NO4) is reported as “slight ability to disrupt the unsurmountable tetramer; also recorded: able to inhibit a small amount of the EphrinB2-EphB2 unsurmountable tetramer” and the IC50 [1, 11] is reported as roughly 1600 nM.
For `COc1ccc(N2CCN(Cc3cc(Br)c(O)c4ncccc34)CC2)cc1` [Compound 73], the IC50 [1, 5] was 2290 nM, the IC50 [1, 6] was 2510 nM and the IC50 [1, 7] was 1510 nM. For the same compound, the IC50 [1, 9] was 1200 nM and the IC50 [1, 10] was 1070 nM.
